Assay results taken from US9302999B2, “Substituted triazoles as herbicides” (E. I. DU PONT DE NEMOURS AND COMPANY, priority 2012, dated 2016).

Tests used:
[1] = system: waterhemp (common waterhemp, Amaranthus rudis); experiment: Test E pre-/postemergence: waterhemp; format: in vivo; conditions: Preemergence, scale 0 to 100
Description: (§1) Seeds of plant species selected from corn (Zea mays), soybean (Glycine max), velvetleaf (Abutilon theophrasti), lambsquarters (Chenopodium album), poinsettia, wild (wild poinsettia, Euphorbia heterophylla), pigweed, palmer (palmer pigweed, Amaranthus palmeri), waterhemp (common waterhemp, Amaranthus rudis), smartweed (ladysthumb smartweed, Polygonum persicaria), surinam grass (Brachiaria decumbens), crabgrass, large (large crabgrass, Digitaria sanguinalis), crabgrass, Brazil (Brazilian crabgrass, Digitaria horizontalis), panicum, fall (fall panicum, Panicum dichotomiflorum), foxtail, giant (giant foxtail, Setaria faberii), foxtail, green (green foxtail, Setaria viridis), goosegrass (Eleusine indica), johnsongrass (Sorghum halepense), ragweed (common ragweed, Ambrosia elation), barnyardgrass (Echinochloa crus-galli), sandbur (southern sandbur, Cenchrus echinatus), arrowleaf sida (Sida rhombifolia), ryegrass, Italian (Italian ryegrass, Lolium multiflorum), dayflower, (VA) (Virginia dayflower, Commelina virginica), field bindweed (Convolvulus arvensis), cocklebur (common cocklebur, Xanthium strumarium), morningglory (Ipomoea coccinea), nightshade (eastern black nightshade, Solanum ptycanthum), kochia (Kochia scoparia), nutsedge, yellow (yellow nutsedge, Cyperus esculentus) and beggarticks (hairy beggarticks, Bidens pilosa) were planted into a silt loam soil and treated preemergence with test chemicals formulated in a non-phytotoxic solvent mixture which included a surfactant. At the same time, plants selected from these crop and weed species were planted in pots containing a growing medium comprising spaghnum peat moss, vermiculite, wetting agent and starter nutrients and treated with postemergence applications of some of the test chemicals formulated in the same manner. Plants ranged in height from 2 to 18 cm for postemergence treatments (1- to 4-leaf stage).
(§2) Treated plants and controls were maintained in a greenhouse for 14 to 21 days, after which time all species were compared to controls and visually evaluated. Plant response ratings, summarized in Table E, are based on a scale of 0 to 100 where 0 is no effect and 100 is complete control. A dash (-) response means no test result.

[2] = system: cocklebur (common cocklebur, Xanthium strumarium); experiment: Test E pre-/postemergence: cocklebur; format: in vivo; conditions: Preemergence, scale 0 to 100
Description: as §1, §2

[3] = system: foxtail, green (green foxtail, Setaria viridis); experiment: Test E pre-/postemergence: foxtail, green; format: in vivo; conditions: Preemergence, scale 0 to 100
Description: as §1, §2

[4] = system: panicum, fall (fall panicum Panicum dichotomiflorum); experiment: Test F pre-/postemergence: panicum, fall; format: in vivo; conditions: Preemergence
Description: (§3) Seeds of plant species selected from corn (Zea mays), soybean (Glycine max), velvetleaf (Abutilon theophrasti), lambsquarters (Chenopodium album), poinsettia, wild (wild poinsettia, Euphorbia heterophylla), pigweed, palmer (palmer pigweed, Amaranthus palmeri), waterhemp (common waterhemp, Amaranthus rudis), surinam grass (Brachiaria decumbens), crabgrass, Brazil (Brazilian crabgrass, Digitaria horizontalis), panicum, fall (fall panicum Panicum dichotomiflorum), crabgrass, large (large crabgrass, Digitaria sanguinalis), foxtail, giant (giant foxtail, Setaria faberii), foxtail, green (green foxtail Setaria viridis), goosegrass (Eleusine indica), ragweed (common ragweed, Ambrosia elatior), barnyardgrass (Echinochloa crus-galli), sandbur (southern sandbur, Cenchrus echinatus), arrowleaf sida (Sida rhombifolia), ryegrass, Italian (Italian ryegrass, Lolium multiflorum), dayflower, VA (Virginia (VA) dayflower, Commelina virginica), field bindweed (Convolvulus arvensis), cocklebur (common cocklebur, Xanthium strumarium), morningglory (Ipomoea coccinea), nightshade (eastern black nightshade, Solanum ptycanthum), kochia (Kochia scoparia), nutsedge, yellow (yellow nutsedge, Cyperus esculentus), johnsongrass (Sorghum halepense), smartweed (ladysthumb smartweed, Polygonum persicaria), and beggarticks (hairy beggarticks, Bidens pilosa), were planted into a silt loam soil and treated preemergence with test chemicals formulated in a non-phytotoxic solvent mixture which included a surfactant. At the same time, plants selected from these crop and weed species and also pigweed (Amaranthus retroflexus), waterhemp_RES1 (ALS/Triazine resistant common waterhemp, Amaranthus rudis) and waterhemp_RES2 (ALS/HPPD resistant common waterhemp, Amaranthus rudis) were planted in pots containing a planting medium comprising spaghnum peat moss, vermiculite, wetting agent and starter nutrients treated with postemergence applications of some of the test chemicals formulated in the same manner. Plants ranged in height from 2 to 18 cm for postemergence treatments (1- to 4-leaf stage).
as §2

corn (Zea mays) = experiment: Test F pre-/postemergence: corn; format: in vivo; conditions: Preemergence
Description: as §3, §2

[5] = system: sandbur (southern sandbur, Cenchrus echinatus); experiment: Test F pre-/postemergence: sandbur; format: in vivo; conditions: Preemergence
Description: as §3, §2

Oilseed Rape = experiment: Test C preemergence: oilseed rape; format: in vivo, Brassica napus; conditions: 125 g ai/ha, scale 0 to 100, 0 no effect, 100 complete control
[6] = system: lambsquarters (Chenopodium album); experiment: Test F pre-/postemergence: lambsquarters; format: in vivo; conditions: Preemergence
Description: as §3, §2

[7] = 16 g ai/ha, scale 0 to 100 (0 no effect, 100 complete control)
[8] = 31 g ai/ha, scale 0 to 100 (0 no effect, 100 complete control)

SMILES	Plant response rating: Waterhemp ([1]; 8 g ai/ha)	Plant response rating: Waterhemp ([1]; 16 g ai/ha)	Plant response rating: Waterhemp ([1]; 31 g ai/ha)	Plant response rating: Waterhemp ([1]; 62 g ai/ha)	Plant response rating: Waterhemp ([1]; 125 g ai/ha)	Plant response rating: Cocklebur ([2]; 16 g ai/ha)	Plant response rating: Cocklebur ([2]; 31 g ai/ha)	Plant response rating: Cocklebur ([2]; 62 g ai/ha)	Plant response rating: Cocklebur ([2]; 125 g ai/ha)	Plant response rating: Foxtail, Green ([3]; 8 g ai/ha)	Plant response rating: Foxtail, Green ([3]; 16 g ai/ha)	Plant response rating: Foxtail, Green ([3]; 31 g ai/ha)	Plant response rating: Foxtail, Green ([3]; 62 g ai/ha)	Plant response rating: Foxtail, Green ([3]; 125 g ai/ha)	Plant response rating, Oilseed Rape (Oilseed Rape)	also measured
Cc1nn(-c2ccc(F)cc2)nc1Oc1ccnc(C(F)(F)F)c1 [Compound 129, 4-[[2-(4-fluorophenyl)-5-methyl-2H-1,2,3-triazol-4-yl]oxy]-2-(trifluoromethyl)pyridine]	20	35	80	100	100	0	0	35	35	0	60	100	100	100	–	Plant response rating: Cocklebur ([2]; 8 g ai/ha): 0
CCCc1nn(-c2ccc(F)cc2)nc1Cc1ccnc(C(F)(F)F)c1 [Compound 153]	–	–	–	–	–	–	–	–	–	–	–	–	–	–	98	Plant response rating, Panicum, Fall [4, 7]: 5; Plant response rating, Panicum, Fall [4, 8]: 100; Plant response rating, Panicum, Fall ([4]; 125 g ai/ha, scale 0 to 100): 100; Plant response rating, Panicum, Fall ([4]; 250 g ai/ha, scale 0 to 100): 100; Plant response rating, Corn (corn (Zea mays); [7]): 0; Plant response rating, Corn (corn (Zea mays); [8]): 0; Plant response rating, Corn (corn (Zea mays); 62 g ai/ha, scale 0 to 100): 0; Plant response rating, Corn (corn (Zea mays); 125 g ai/ha, scale 0 to 100): 0; Plant response rating, Corn (corn (Zea mays); 250 g ai/ha, scale 0 to 100): 10; Plant response rating, Sandbur [5, 7]: 5; Plant response rating, Sandbur [5, 8]: 35; Plant response rating, Sandbur ([5]; 125 g ai/ha, scale 0 to 100): 95; Plant response rating, Sandbur ([5]; 250 g ai/ha, scale 0 to 100): 100; Plant response rating, Lambsquarters [6, 7]: 0; Plant response rating, Lambsquarters [6, 8]: 65; Plant response rating, Lambsquarters ([6]; 62 g ai/ha, scale 0 to 100): 98; Plant response rating, Lambsquarters ([6]; 125 g ai/ha, scale 0 to 100): 98; Plant response rating, Lambsquarters ([6]; 250 g ai/ha, scale 0 to 100): 98
Cc1nn(-c2ccc(F)cc2)nc1Cc1ccnc(C(F)(F)F)c1 [Compound 16, 4-[[2-(4-fluorophenyl)-5-methyl-2H-1,2,3-triazol-4-yl]methyl]-2-(trifluoromethyl)pyridine]	60	70	100	100	100	0	0	0	0	60	90	90	100	100	–	–
CCOc1nn(-c2ccc(Br)cc2)nc1Cc1ccnc(C(F)(F)F)c1 [Compound 189]	–	–	–	–	–	–	–	–	–	–	–	–	–	–	85	–
CCCc1nn(-c2ccc(C(F)(F)F)c(F)c2)nc1Oc1ccnc(C(F)(F)F)c1 [Compound 185]	–	–	–	–	–	–	–	–	–	–	–	–	–	–	100	–
